Laboratory results published in PMC11089204 (Frontiers in Pharmacology, 2024).

Columns and labels:
recombinant CYP2D6 = target: T1, recombinant CYP2D6 (Homo sapiens, UniProt P10635); test: Incubation with recombinant CYP2D6 enzymes; type: in vitro ADME; settings: rec. CYP2D6 with CYP2D6 inhibitor quinidine
T1 construct: purchased Corning Life Sciences B.V
Description: Corning UltraPool human liver microsomes (HLM) 150 (20 mg/mL), human intestinal microsomes (HIM) pool (10 mg/mL) as well as recombinant human CYP enzymes (with P450 oxidoreductase, OR) including CYP1A2+OR (0.5 nmol), CYP2B6+OR (0.5 nmol), CYP2C8+OR (1.0 nmol), CYP2C9*1+OR (1 nmol), CYP2C19+OR (0.5 nmol), CYP2D6*1+OR (0.5 nmol), CYP2E1+OR + cytochrome b5 (1 nmol), CYP3A4+OR + cytochrome b5 (0.5 nmol), MAO-A (5 mg/mL), MAO-B (5 mg/mL), and UGT1A10 (5 mg/mL) were purchased from Corning Life Sciences B.V (Amsterdam, Netherlands). All microsomes and recombinant enzyme solutions were aliquoted and stored at −80 °C until further use.
The total volume of the reaction mixture was 500 μL. […] Samples were either directly analyzed by liquid chromatography tandem mass spectrometry (LC-MS/MS) or briefly stored at −20°C until analysis.

[1] = Pharmacokinetics and metabolites in mouse plasma after oral psilocybin; type: in vivo, C57BL/6J mice; settings: male, C57BL/6J, po; mouse plasma, 3 mg/kg psilocybin p.o., n = 5; read-out: tmax (mean ± SD)
Description: C57BL/6J adult male mice (Janvier, Le Genest-Saint-Isle, France) were maintained in littermate pairs in standard cages (containing sawdust, a sleeping chamber, tissue paper, and a wood stick) with water and pellet food available ad libitium. The colony room was on a reversed light-dark cycle (dark phase 07:00 to 19:00) with temperature at 22°C and humidity at 50–60%. A total of 10 mice were dosed orally with either 3 mg/kg bodyweight psilocybin (n = 5) or saline solution (n = 5). Dosing and blood sampling were conducted between 09:00 and 13:00. The mouse was placed in a plastic restrainer with the tail protruding through a hole in the end of the tube. The tail was immersed in warm water for 1 min for vasodilation and then a small incision was made on the lateral tail surface near the distal tip. 50 μL of blood was massaged gently into an EDTA-coated capillary blood tube (Mircovette, Sarstedt, Nümbrecht, Germany). The first (baseline) blood sample was collected directly before compound administration via oral gavage and the mouse was then returned to the home cage. Further blood samples were collected at 15, 30, 60, and 120 min post-treatment. Each sample was drawn from the same incision site, with mice maintained in the home cage in the intervening periods. The blood samples were stored on ice and centrifuged for 10 min at 780 × g and 4°C. Subsequently, the plasma was transferred into cryotubes (Protein LoBind, Eppendorf) and stored at −80 °C until analysis. All procedures were conducted under a permit for animal experimentation (ZH038/2022) issued by the Veterinary Office Zurich in accordance with the Animal Protection Act (1978) of Switzerland. The use of psilocybin was authorized by the Federal Office of Public Health (FOPH).
Pharmacokinetic parameters were calculated using Phoenix WinNonlin software (version 8.1.0, Certara, Princeton, USA). The elimination half-life (t1/2, min) was assessed as t1/2 = ln(2)/λ, while the elimination constant was calculated by linear regression in the terminal elimination phase. The maximal plasma concentration (Cmax, ng/mL) and the time to reach this concentration (tmax, h) were direct read-outs of the graphical plots.

mouse 5-HT2A receptor = target: mouse 5-HT2A receptor; set-up: method as in Sherwood et al., 2020; settings: Gq-dependent calcium flux, nearly full agonist; ref Sherwood et al., 2020; cited from earlier work
mice = system: mice; set-up: method as in Sherwood et al., 2020; settings: ref Sherwood et al., 2020; cited from earlier work
[2] = Metabolites in human plasma after oral psilocybin (reanalysed study samples); settings: 30 mg psilocybin p.o., n = 5

T1 sequence (P10635 whole entry): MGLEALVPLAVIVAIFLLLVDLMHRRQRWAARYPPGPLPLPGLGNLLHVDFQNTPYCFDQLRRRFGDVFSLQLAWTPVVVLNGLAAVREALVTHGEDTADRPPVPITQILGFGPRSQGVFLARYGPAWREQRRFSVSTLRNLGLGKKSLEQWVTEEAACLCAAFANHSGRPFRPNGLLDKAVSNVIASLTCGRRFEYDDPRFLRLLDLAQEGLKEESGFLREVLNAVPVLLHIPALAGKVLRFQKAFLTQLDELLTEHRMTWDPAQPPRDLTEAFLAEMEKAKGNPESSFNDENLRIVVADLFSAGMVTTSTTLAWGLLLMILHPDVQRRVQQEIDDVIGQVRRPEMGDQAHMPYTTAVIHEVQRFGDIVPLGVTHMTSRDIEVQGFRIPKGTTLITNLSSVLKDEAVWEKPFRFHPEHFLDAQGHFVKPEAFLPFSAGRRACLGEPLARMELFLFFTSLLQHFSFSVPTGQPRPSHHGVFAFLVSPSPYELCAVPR

CNCCc1c[nH]c2cccc(O)c12 [norpsilocin, N-methyl-4-hydroxytryptamine]
metabolite formation on co-incubation with quinidine (recombinant CYP2D6): reduced and delayed formation | Tmax [1]: ~15 min | EC50 (mouse 5-HT2A receptor): < 10 nM | psychoactive properties in head-twitch response (mice): did not show any psychoactive properties | detection in human plasma [2]: neither norpsilocin nor 4-HTP was detected
